Source: patent publication US8461183B2, “PPAR agonist compounds, preparation and uses” (Genfit, priority 2008, dated 2013)

Tests used:
Assay type in all cases: cell-based
hPPARα = target: T1, hPPARα (Homo sapiens, UniProt Q07869); test: Gal4-hPPARα chimera transactivation (luciferase) in COS-7 cells; details: for EC50: luciferase, read-out: PPARα EC50; for Emax: read-out: PPARα TOP % (maximum activation)
T1 construct: corresponding to the DEF domains (structural elements of the promoter of the PPARs: D=hinge, EF=ligand fixation domain and AF2 fixation site); expressed in transfected cells; host or cells: COS-7 (monkey kidney fibroblasts)
T1 sequence (Q07869 239-466 limits assumed): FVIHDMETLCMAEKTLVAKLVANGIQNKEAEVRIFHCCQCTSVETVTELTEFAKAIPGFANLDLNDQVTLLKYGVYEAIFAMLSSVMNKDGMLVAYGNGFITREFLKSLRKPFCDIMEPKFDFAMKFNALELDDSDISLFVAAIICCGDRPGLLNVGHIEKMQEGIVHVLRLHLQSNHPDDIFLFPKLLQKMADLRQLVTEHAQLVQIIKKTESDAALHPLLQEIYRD
Description: (§1) Activation of PPARs is evaluated in vitro on a line of monkey kidney fibroblasts (COS-7) by measuring the transcriptional activity of chimeras consisting of the DNA binding domain of Gal4 transcription factor of yeast and of the ligand binding domain of the various PPARs of human origin (hPPAR).
(§2) The COS-7 cells are from ATCC and are cultivated in DMEM medium supplemented with 10% (vol/vol) of fetal calf serum, 1% of penicillin/streptomycin (Biochrom, AG), 1% of amino acids (Gibco) and 1% of sodium pyruvate (Gibco). The cells are incubated at 37° C. in a humid atmosphere containing 5% CO2.
(§3) The plasmids Gal4(RE)_TkpGL3, pGal4-hPPARα, pGal4-hPPARγ, pGal4-hPPARδ and pGal4-φ are described in the literature (Raspe E et al., 1999). The constructs pGal4-hPPARα, pGal4-hPPARγ and pGal4-hPPARδ were obtained by cloning, into the pGal4-φ vector, DNA fragments amplified by PCR corresponding to the DEF domains (structural elements of the promoter of the PPARs: D=hinge, EF=ligand fixation domain and AF2 fixation site) of the human nuclear receptors PPAα, PPARγ and PPARδ.
(§4) The adherent COS-7 cells are transfected with 40 μg of DNA per 225 cm^2 flask, with a pGal4-hPPAR/Gal4(RE)_TkpGL3 ratio of 1/10, in the presence of 10% of fetal calf serum. The cells are then detached and seeded in the absence of serum in 384-well plates (2×10^4 cells/well) then incubated for 4 hours at 37° C. The compounds are then diluted in a 96-well plate and then transferred to the 384-well plate. Activation with the test compounds is effected for a further 24 hours at 37° C. in the presence of 1% of synthetic serum Ultroser™ (Biosepra). These last 2 stages are automated by means of a Genesis Freedom 200™ station (Tecan). At the end of the experiment, the cells are lysed and the luciferase activity is determined using the Steady-Lite™ HTS (Perkin Elmer) according to the supplier's recommendations.
The test data are summarized in Table 8-1 below, which presents, for each compound, the values of maximum activation (TOP %) and the EC50 values measured for each isoform of PPAR. The values of maximum activation are expressed in percentages relative to the maximum activations obtained with reference agonists: fenofibric acid for PPARα, rosiglitazone for PPARγ and 2-methyl-4-((4-methyl-2-(4-trifluoromethylphenyl)-1,3-thiazol-5-yl)-methylsulfanyl)phenoxyacetic acid (also called GW501516) for PPARδ.

hPPARδ = target: T2, hPPARδ (Homo sapiens, UniProt Q03181); test: Gal4-hPPARδ chimera transactivation (luciferase) in COS-7 cells; details: COS-7 cells, Gal4-hPPARδ, 24 hours; for EC50: luciferase, read-out: PPARδ EC50; for Emax: relative to maximum activation obtained with GW501516, read-out: PPARδ TOP % (maximum activation)
T2 construct: corresponding to the DEF domains (structural elements of the promoter of the PPARs: D=hinge, EF=ligand fixation domain and AF2 fixation site); expressed in transfected cells; host or cells: COS-7 (monkey kidney fibroblasts)
T2 sequence (Q03181 211-439 limits assumed): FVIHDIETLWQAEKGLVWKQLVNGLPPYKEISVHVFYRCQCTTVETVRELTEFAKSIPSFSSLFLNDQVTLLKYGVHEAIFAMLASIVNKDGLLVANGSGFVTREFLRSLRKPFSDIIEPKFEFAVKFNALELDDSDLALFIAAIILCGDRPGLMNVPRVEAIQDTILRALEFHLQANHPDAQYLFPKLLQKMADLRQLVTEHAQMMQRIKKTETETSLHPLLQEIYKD
Description: as §1, §2, §3, §4
(§5) The test data are summarized in Table 8-1 below, which presents, for each compound, the values of maximum activation (TOP %) and the EC50 values measured for each isoform of PPAR.

hPPARγ = target: T3, hPPARγ (Homo sapiens, UniProt P37231); test: Gal4-hPPARγ chimera transactivation (luciferase) in COS-7 cells; details: 24 hours; for EC50: luciferase, read-out: PPARγ EC50; for Emax: relative to maximum activation obtained with rosiglitazone, read-out: PPARγ TOP % (maximum activation)
T3 construct: corresponding to the DEF domains (structural elements of the promoter of the PPARs: D=hinge, EF=ligand fixation domain and AF2 fixation site); expressed in transfected cells; host or cells: COS-7 (monkey kidney fibroblasts)
T3 sequence (P37231 238-503 limits assumed): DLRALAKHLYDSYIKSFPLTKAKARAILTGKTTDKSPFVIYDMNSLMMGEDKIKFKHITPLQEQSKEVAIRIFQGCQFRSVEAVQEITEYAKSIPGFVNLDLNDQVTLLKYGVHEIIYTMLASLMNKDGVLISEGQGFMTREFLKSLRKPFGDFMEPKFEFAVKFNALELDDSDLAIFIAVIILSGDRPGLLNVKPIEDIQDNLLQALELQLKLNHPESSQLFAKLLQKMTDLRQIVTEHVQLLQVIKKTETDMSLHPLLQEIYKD
Description: as §1, §2, §3, §4, §5

[1] = COS-7 cells, Gal4-hPPARα, 24 hours
[2] = relative to maximum activation obtained with fenofibric acid, COS-7 cells, Gal4-hPPARα, 24 hours

| EC50 (hPPARα; [1]) [µM] | Emax (hPPARα; [2]) [%] | EC50 (hPPARδ) [µM] | Emax (hPPARδ) [%] | EC50 (hPPARγ) [µM] | Emax (hPPARγ) [%] | selectivity among hPPAR isoforms (hPPARα) (hPPARα; Gal4-hPPAR chimeras, COS-7) | PPARα TOP % (maximum activation) (hPPARα; [2]) [%] | Compound |
| --- | --- | --- | --- | --- | --- | --- | --- | --- |
| 9.95 | 65.5 | 12.7 | 94.7 | 9.17 | 98.5 | – | – | COc1nc(-c2ccccc2)ccc1CSc1ccc(CCC(=O)O)cc1 [Cpd 37, 3-(4-((2-methoxy-6-phenylpyridin-3-yl)methylthio)phenyl)propanoic acid] |
| – | 75.9 | 1.15 | 102 | 1.05 | 88.9 | – | – | COc1nc(-c2ccc(C(F)(F)F)cc2)ccc1CNc1ccc(SC(C)(C)C(=O)O)cc1 [Cpd 22, 2-(4-(((2-methoxy-6-(4-(trifluoromethyl)phenyl)pyridin-3-yl)methyl)amino)-phenylthio)-2-methylpropanoic acid] |
| 1.42 | 67.6 | 0.526 | 108 | 2.33 | 80.4 | – | – | CCC(Nc1ccc(CCC(=O)O)cc1)c1ccc(-c2ccccc2)nc1OC (centres unmarked) [Cpd 34, 3-(4-(1-((2-methoxy-6-phenylpyridin-3-yl)propyl)amino)phenyl)propanoic acid] |
| 0.022 | 86.2 | 3 | 85.7 | 2.45 | 54.5 | high selectivity for hPPARα | – | COc1nc(-c2ccccc2)ccc1CNc1ccc(SC(C)(C)C(=O)O)cc1 [Cpd 11, 2-(4-(((2-methoxy-6-phenylpyridin-3-yl)methyl)amino)phenylthio)-2-methyl-propanoic acid] |
| 7.97 | 34.5 | 3.2 | 92.1 | 4.85 | 42.2 | – | – | CC(C)Oc1nc(-c2ccccc2)ccc1CNc1ccc(CCC(=O)O)cc1 [Cpd 54, 3-(4-(((2-isopropyloxy-6-phenylpyridin-3-yl)methyl)amino)phenyl)propanoic acid] |
| 0.647 | 26.1 | 1.54 | 13.2 | 6.18 | 38.8 | – | – | COc1nc(-c2ccccc2)ccc1CNc1cc(C)c(OCC(=O)O)c(C)c1 [Cpd 35, 2-(4-(((2-methoxy-6-phenylpyridin-3-yl)methyl)amino)-2,6-dimethyl-phenoxy)ethanoic acid] |
| 33.3 | 58.4 | 16.2 | 103 | 24.3 | 53.7 | – | – | COc1nc(-c2ccccc2)ccc1CNc1cccc(OCC(=O)O)c1 [Cpd 14, 2-(3-(((2-methoxy-6-phenylpyridin-3-yl)methyl)amino)phenoxy)ethanoic acid] |
| 10.8 | 36.2 | 6.78 | 64.5 | 7.6 | 45.4 | – | – | CCSc1nc(-c2ccccc2)ccc1CNc1ccc(CCC(=O)O)cc1 [Cpd 38, 3-(4-(((2-(ethylthio)-6-phenylpyridin-3-yl)methyl)amino)phenyl)propanoic acid] |
| 3.24 | 78.2 | 1.52 | 96.5 | 12.3 | 46.6 | – | – | CCCCCCOc1nc(-c2ccccc2)ccc1COc1ccc(OCC(=O)O)cc1 [Cpd 15, 2-(4-((2-hexyloxy-6-phenylpyridin-3-yl)methoxy)phenoxy)ethanoic acid] |
| 1.43 | 61.9 | 3.22 | 96.1 | 6.93 | 24.1 | – | – | COc1nc(-c2ccccc2)ccc1CNc1cccc(OC(C)(C)C(=O)O)c1 [Cpd 13, 2-(3-(((2-methoxy-6-phenylpyridin-3-yl)methyl)amino)phenoxy)-2-methyl-propanoic acid] |
| 7.36 | 35.9 | 17 | 107 | 27.2 | 72.1 | – | – | COc1ncc(-c2ccccc2)cc1CNc1ccc(CCC(=O)O)cc1 [Cpd 41, 3-(4-(((2-methoxy-5-phenylpyridin-3-yl)methyl)amino)phenyl)propanoic acid] |
| 0.432 | 68.7 | 1.2 | 114 | 3.24 | 43.6 | – | – | COc1nc(-c2ccccc2)ccc1COc1ccc(OC(C)C(=O)O)cc1 (centres unmarked) [Cpd 3, 2-(4-((2-methoxy-6-phenylpyridin-3-yl)methoxy)phenoxy)propanoic acid] |
| 1.48 | 70.4 | 22.8 | 3.59 | 2.51 | 66.6 | – | – | COc1nc(-c2ccccc2)ccc1CNc1ccc(SC(C(=O)O)c2ccccc2)cc1 (centres unmarked) [Cpd 32, 2-(4-(((2-methoxy-6-phenylpyridin-3-yl)methyl)amino)phenylthio)-2-phenyl-acid] |
| 1.44 | 44.9 | 1.51 | 77.9 | 0.402 | 85.6 | – | – | COc1cc(NCc2ccc(-c3ccccc3)nc2OC)ccc1CCC(=O)O [Cpd 43, 3-(2-methoxy-4-(((2-methoxy-6-phenylpyridin-3-yl)methyl)amino)-phenyl)-propanoic acid] |
| 20.9 | 67 | 31.1 | 138 | 44.1 | 208 | – | – | COc1ncc(-c2ccccc2)cc1CNc1ccc(SCC(=O)O)cc1 [Cpd 26, 2-(4-(((2-methoxy-5-phenylpyridin-3-yl)methyl)amino)phenylthio)ethanoic acid] |
| 1.29 | 50.5 | 1.93 | 93.1 | 2.23 | 70.9 | – | – | CCOc1nc(-c2ccccc2)ccc1CNc1ccc(CCC(=O)O)cc1 [Cpd 51, 3-(4-(((2-ethoxy-6-phenylpyridin-3-yl)methyl)amino)phenyl)propanoic acid] |
| 5.14 | 48.6 | 10.3 | 9.86 | 1.01 | 78 | – | – | CC#CC(CC(=O)O)c1ccc(OCc2ccc(-c3ccccc3)nc2OC)cc1 (centres unmarked) [Cpd 53, 3-(4-((2-methoxy-6-phenylpyridin-3-yl)methoxy)phenyl)hex-4-ynoic acid] |
| 12.1 | – | – | – | – | – | – | 38.70 | 2-(4-(((2-methoxy-6-furylpyridin-3-yl)methyl)amino)phenylthio)ethanoic acid [Cpd 30] |
